Source: ChEMBL document CHEMBL1782017, “Synthesis and biological evaluation of new flavonoid fatty acid esters with anti-adipogenic and enhancing glucose consumption activities” (2011)

Columns and labels:
3T3-L1 [1] = assay: Glucose consumption in differentiated mouse 3T3L1 cells in low-glucose medium at 50 ug/ml after 24 hrs by glucose-oxidase method (Rvb =2.41 +/- 0.22 mmol/L); format: functional
3T3-L1 [2] = assay: Glucose consumption in differentiated mouse 3T3L1 cells in low-glucose medium at 100 ug/ml after 24 hrs by glucose-oxidase method (Rvb =2.35 +/- 0.19 mmol/L); format: functional
3T3-L1 [3] = assay: Inhibition of adipogenesis in mouse 3T3L1 cells at 100 umol/L after 8 days by Oil red O-staining; format: functional; conditions: 3T3-L1, 192 h
3T3-L1 [4] = assay: Glucose consumption in differentiated mouse 3T3L1 cells in high-glucose medium after 24 hrs by glucose-oxidase method; format: functional, cell-based
3T3-L1 [5] = assay: Glucose consumption in differentiated mouse 3T3L1 cells in high-glucose medium at 50 ug/ml after 24 hrs by glucose-oxidase method (Rvb =3.06 +/- 0.29 mmol/L); format: functional
3T3-L1 [6] = assay: Glucose consumption in differentiated mouse 3T3L1 cells in high-glucose medium at 100 ug/ml after 24 hrs by glucose-oxidase method (Rvb =3.12 +/- 0.32 mmol/L); format: functional
3T3-L1 [7] = assay: Glucose consumption in differentiated mouse 3T3L1 cells in low-glucose medium after 24 hrs by glucose-oxidase method; format: functional, cell-based
3T3-L1 [8] = assay: Antiproliferative activity against mouse 3T3L1 cells after 48 hrs by MTT assay; format: functional; design: concentration or dose not given beside the values
3T3-L1 [9] = assay: Increase in glucose consumption in differentiated mouse 3T3L1 cells in low-glucose medium at 100 ug/ml after 24 hrs by glucose-oxidase method relative to control; format: functional
3T3-L1 [10] = assay: Increase in glucose consumption in differentiated mouse 3T3L1 cells in high-glucose medium at 100 ug/ml after 24 hrs by glucose-oxidase method relative to control; format: functional
3T3-L1 [11] = assay: Increase in glucose consumption in differentiated mouse 3T3L1 cells in low-glucose medium at 50 ug/ml after 24 hrs by glucose-oxidase method relative to control; format: functional

## CCCCC/C=C\C=C\CCCCCCCCC(=O)Oc1ccc2c(c1)C(=O)/C(=C/c1ccc(OC)c(OC)c1)O2
3T3-L1 [1]
  Activity: 2.99 mmol/L
3T3-L1 [2]
  Activity: 3.85 mmol/L
3T3-L1 [3]
  inhibition at 100 µM: 1.88%
3T3-L1 [4]
  Activity: Dose-dependent effect
3T3-L1 [5]
  Activity: 3.71 mmol/L
3T3-L1 [6]
  Activity: 5.08 mmol/L
3T3-L1 [7]
  Activity: Dose-dependent effect
3T3-L1 [8]
  Activity: 20.72%

## CCCCCCCC/C=C\CCCCCCCC(=O)Oc1ccc2c(c1)C(=O)/C(=C/c1cccc(OC)c1)O2
3T3-L1 [3]
  inhibition at 100 µM: 0%
3T3-L1 [8]
  Activity: -5.41%

## CCCCCCCCCCCCCCCCCC(=O)Oc1ccc2c(c1)C(=O)/C(=C/c1ccc(OC)c(OC)c1)O2
3T3-L1 [8]
  Activity: -3.84%

## CCCCCCCC/C=C\CCCCCCCC(=O)Oc1ccc2c(c1)C(=O)/C(=C/c1cccc([N+](=O)[O-])c1)O2
3T3-L1 [1]
  Activity: 2.93 mmol/L
3T3-L1 [2]
  Activity: 3.47 mmol/L
3T3-L1 [3]
  inhibition at 100 µM: 15.6%
3T3-L1 [5]
  Activity: 3.35 mmol/L
3T3-L1 [6]
  Activity: 3.96 mmol/L
3T3-L1 [8]
  Activity: 17.55%

## CCc1ccc(CCOc2ccc(CC3SC(=O)NC3=O)cc2)nc1 (stereo unspecified) [PIOGLITAZONE]
3T3-L1 [1]
  Activity: 5.51 mmol/L
3T3-L1 [2]
  Activity: 6.75 mmol/L
3T3-L1 [4]
  Activity: Dose-dependent effect
3T3-L1 [5]
  Activity: 7.36 mmol/L
3T3-L1 [6]
  Activity: 8.15 mmol/L
3T3-L1 [7]
  Activity: Dose-dependent effect

## C=CCCCCCCCCC(=O)Oc1ccc2c(c1)C(=O)/C(=C/c1cccc(Cl)c1)O2
3T3-L1 [1]
  Activity: 2.88 mmol/L
3T3-L1 [2]
  Activity: 3.56 mmol/L
3T3-L1 [3]
  inhibition at 100 µM: 28.7%
3T3-L1 [4]
  Activity: Dose-dependent effect
3T3-L1 [5]
  Activity: 3.86 mmol/L
3T3-L1 [6]
  Activity: 4.49 mmol/L
3T3-L1 [7]
  Activity: Dose-dependent effect
3T3-L1 [8]
  Activity: 57.4%

## CCCCC/C=C\C=C\CCCCCCCCC(=O)Oc1ccc2c(c1)C(=O)/C(=C/c1ccc(OC)cc1)O2
3T3-L1 [3]
  inhibition at 100 µM: 22.6%
3T3-L1 [8]
  Activity: -24.96%

## CCCCCCCCCCCCCCCCCC(=O)Oc1ccc2c(c1)C(=O)/C(=C/c1cccc(Cl)c1)O2
3T3-L1 [8]
  Activity: -0.06%

## CCCCCCCCCCCCCCCCCC(=O)Oc1ccc2c(c1)C(=O)/C(=C/c1ccc(Br)cc1)O2
3T3-L1 [8]
  Activity: 5.02%

## CCCCCCCC/C=C\CCCCCCCC(=O)Oc1ccc2c(c1)O/C(=C\c1ccc(OC)cc1)C2=O
3T3-L1 [1]
  Activity: 4.94 mmol/L
3T3-L1 [2]
  Activity: 5.61 mmol/L
3T3-L1 [3]
  inhibition at 100 µM: 14.3%
3T3-L1 [4]
  Activity: Dose-dependent effect
3T3-L1 [5]
  Activity: 5.48 mmol/L
3T3-L1 [9]
  fold change (FC): 2.39
3T3-L1 [6]
  Activity: 6.05 mmol/L
3T3-L1 [7]
  Activity: Dose-dependent effect
3T3-L1 [10]
  fold change (FC): 2.39
3T3-L1 [8]
  Activity: 22.18%
3T3-L1 [11]
  fold change (FC): 2.39

## CCCCC/C=C\C=C\CCCCCCCCC(=O)Oc1ccc2c(c1)C(=O)/C(=C/c1cccc(OC)c1)O2
3T3-L1 [8]
  Activity: 6.45%

## CCCCCCCCCCCCCCCC(=O)Oc1ccc2c(c1)C(=O)/C(=C/c1ccc(OC)cc1)O2
3T3-L1 [8]
  Activity: 1.19%

## C=CCCCCCCCCC(=O)Oc1ccc2c(=O)c(Cc3ccc(OC)cc3)coc2c1
3T3-L1 [8]
  Activity: -17.45%

## CCCCCCCCCCCCCCCC(=O)Oc1ccc2c(c1)C(=O)/C(=C/c1ccc(F)cc1)O2
3T3-L1 [8]
  Activity: -0.47%

## C=CCCCCCCCCC(=O)Oc1ccc2c(c1)C(=O)/C(=C/c1cccc([N+](=O)[O-])c1)O2
3T3-L1 [8]
  Activity: -8.37%

## CCCCC/C=C\C=C\CCCCCCCCC(=O)Oc1ccc2c(c1)C(=O)/C(=C/c1cccc([N+](=O)[O-])c1)O2
3T3-L1 [1]
  Activity: 3.64 mmol/L
3T3-L1 [2]
  Activity: 4.29 mmol/L
3T3-L1 [3]
  inhibition at 100 µM: 15.1%
3T3-L1 [4]
  Activity: Dose-dependent effect
3T3-L1 [5]
  Activity: 4.21 mmol/L
3T3-L1 [6]
  Activity: 4.95 mmol/L
3T3-L1 [7]
  Activity: Dose-dependent effect
3T3-L1 [8]
  Activity: -12.06%

## CCCCCCCCCCCCCCCC(=O)Oc1ccc2c(c1)C(=O)/C(=C/c1cccc(OC)c1)O2
3T3-L1 [8]
  Activity: -20.26%

## CCCCCCCC/C=C\CCCCCCCC(=O)Oc1ccc2c(c1)C(=O)/C(=C/c1ccc(OC)cc1)O2
3T3-L1 [1]
  Activity: 4.48 mmol/L
3T3-L1 [2]
  Activity: 5.05 mmol/L
3T3-L1 [3]
  inhibition at 100 µM: 11.7%
3T3-L1 [4]
  Activity: Dose-dependent effect
3T3-L1 [5]
  Activity: 4.91 mmol/L
3T3-L1 [6]
  Activity: 5.67 mmol/L
3T3-L1 [7]
  Activity: Dose-dependent effect
3T3-L1 [8]
  Activity: 17.69%

## C=CCCCCCCCCC(=O)Oc1ccc2c(c1)C(=O)/C(=C/c1ccc(Br)cc1)O2
3T3-L1 [8]
  Activity: 1.25%

## CCCCCCCC/C=C\CCCCCCCC(=O)Oc1ccc2c(=O)c(-c3ccc(OC)cc3)coc2c1 [OLEOYL FORMONONETIN]
3T3-L1 [1]
  Activity: 5.01 mmol/L
3T3-L1 [2]
  Activity: 6.95 mmol/L
3T3-L1 [3]
  inhibition at 100 µM: 2.52%
3T3-L1 [4]
  Activity: Dose-dependent effect
3T3-L1 [5]
  Activity: 6.52 mmol/L
3T3-L1 [6]
  Activity: 7.49 mmol/L
3T3-L1 [7]
  Activity: Dose-dependent effect
3T3-L1 [8]
  Activity: 10.91%

## CCCCC/C=C\C=C\CCCCCCCCC(=O)Oc1ccc2c(c1)C(=O)/C(=C/c1ccc(F)cc1)O2
3T3-L1 [3]
  inhibition at 100 µM: 0%
3T3-L1 [8]
  Activity: 14.2%

## C=CCCCCCCCCC(=O)Oc1ccc2c(c1)C(=O)/C(=C/c1ccc(OC)c(OC)c1)O2
3T3-L1 [8]
  Activity: -22.17%

## CCCCCCCC/C=C\CCCCCCCC(=O)Oc1ccc2c(c1)C(=O)/C(=C/c1ccc(OC)c(OC)c1)O2
3T3-L1 [3]
  inhibition at 100 µM: 0%
3T3-L1 [8]
  Activity: 12.53%

## CCCCCCCC/C=C\CCCCCCCC(=O)Oc1ccc2c(c1)C(=O)/C(=C/c1ccc(Br)cc1)O2
3T3-L1 [3]
  inhibition at 100 µM: 16.6%
3T3-L1 [8]
  Activity: -6.62%

## CCCCC/C=C\C=C\CCCCCCCCC(=O)Oc1ccc2c(c1)C(=O)/C(=C/c1ccc(Br)cc1)O2
3T3-L1 [8]
  Activity: 11.09%

## CCCCC/C=C\C=C\CCCCCCCCC(=O)Oc1ccc2c(=O)c(Cc3ccc(OC)cc3)coc2c1
3T3-L1 [8]
  Activity: -4.37%

## CCCCCCCCCCCCCCCC(=O)Oc1ccc2c(c1)C(=O)/C(=C/c1ccc(Br)cc1)O2
3T3-L1 [8]
  Activity: 1.05%

## CCCCCCCC/C=C\CCCCCCCC(=O)Oc1ccc2c(=O)c(Cc3ccc(OC)cc3)coc2c1
3T3-L1 [1]
  Activity: 2.71 mmol/L
3T3-L1 [2]
  Activity: 3.38 mmol/L
3T3-L1 [3]
  inhibition at 100 µM: 47.5%
3T3-L1 [4]
  Activity: Dose-dependent effect
3T3-L1 [5]
  Activity: 3.49 mmol/L
3T3-L1 [6]
  Activity: 4.23 mmol/L
3T3-L1 [7]
  Activity: Dose-dependent effect
3T3-L1 [8]
  Activity: 1.88%

## CCCCCCCCCCCCCCCCCC(=O)Oc1ccc2c(c1)C(=O)/C(=C/c1cccc(OC)c1)O2
3T3-L1 [8]
  Activity: -10.94%

## CCCCCCCCCCCCCCCCCC(=O)Oc1ccc2c(=O)c(Cc3ccc(OC)cc3)coc2c1
3T3-L1 [3]
  inhibition at 100 µM: 1.95%
3T3-L1 [8]
  Activity: -31.87%

## C=CCCCCCCCCC(=O)Oc1ccc2c(c1)O/C(=C\c1ccc(OC)cc1)C2=O
3T3-L1 [8]
  Activity: -1.39%

## CCCCCCCCCCCCCCCC(=O)Oc1ccc2c(c1)C(=O)/C(=C/c1ccc(OC)c(OC)c1)O2
3T3-L1 [8]
  Activity: -3.72%

## CCCCCCCC/C=C\CCCCCCCC(=O)Oc1ccc2c(c1)C(=O)/C(=C/c1ccc(F)cc1)O2
3T3-L1 [1]
  Activity: 3.81 mmol/L
3T3-L1 [2]
  Activity: 4.35 mmol/L
3T3-L1 [3]
  inhibition at 100 µM: 9.38%
3T3-L1 [4]
  Activity: Dose-dependent effect
3T3-L1 [5]
  Activity: 4.07 mmol/L
3T3-L1 [6]
  Activity: 4.82 mmol/L
3T3-L1 [7]
  Activity: Dose-dependent effect
3T3-L1 [8]
  Activity: 22.57%

## CCCCCCCCCCCCCCCCCC(=O)Oc1ccc2c(c1)O/C(=C\c1ccc(OC)cc1)C2=O
3T3-L1 [3]
  inhibition at 100 µM: 0%
3T3-L1 [8]
  Activity: 11.43%

## C=CCCCCCCCCC(=O)Oc1ccc2c(c1)C(=O)/C(=C/c1ccc(F)cc1)O2
3T3-L1 [1]
  Activity: 4.41 mmol/L
3T3-L1 [2]
  Activity: 5.45 mmol/L
3T3-L1 [3]
  inhibition at 100 µM: 25.4%
3T3-L1 [4]
  Activity: Dose-dependent effect
3T3-L1 [5]
  Activity: 5.16 mmol/L
3T3-L1 [6]
  Activity: 5.85 mmol/L
3T3-L1 [7]
  Activity: Dose-dependent effect
3T3-L1 [8]
  Activity: 16.67%

## CCCCCCCC/C=C\CCCCCCCC(=O)Oc1ccc2c(c1)C(=O)/C(=C/c1cccc(Cl)c1)O2
3T3-L1 [3]
  inhibition at 100 µM: 0%
3T3-L1 [8]
  Activity: 20.76%

## CCCCCCCCCCCCCCCCCC(=O)Oc1ccc2c(c1)C(=O)/C(=C/c1cccc([N+](=O)[O-])c1)O2
3T3-L1 [8]
  Activity: -5.03%

## C=CCCCCCCCCC(=O)Oc1ccc2c(c1)C(=O)/C(=C/c1cccc(OC)c1)O2
3T3-L1 [8]
  Activity: 0.21%

## C=CCCCCCCCCC(=O)Oc1ccc2c(c1)C(=O)/C(=C/c1ccc(OC)cc1)O2
3T3-L1 [8]
  Activity: -2.09%

## CCCCCCCCCCCCCCCCCC(=O)Oc1ccc2c(c1)C(=O)/C(=C/c1ccc(F)cc1)O2
3T3-L1 [8]
  Activity: -9.45%

## CCCCCCCCCCCCCCCCCC(=O)Oc1ccc2c(c1)C(=O)/C(=C/c1ccc(OC)cc1)O2
3T3-L1 [8]
  Activity: -10.93%

## CCCCC/C=C\C=C\CCCCCCCCC(=O)Oc1ccc2c(c1)C(=O)/C(=C/c1cccc(Cl)c1)O2
3T3-L1 [8]
  Activity: -11.46%
